Measured values reported in ChEMBL document CHEMBL1156106 (J Med Chem, 2009).

Experiments:
[1] = tested on: Rattus norvegicus; test: Effect on behavioural activity in ip dosed rat assessed as cocaine-induced lever response pretreated with cocaine by drug-discrimination studies; type: functional
[2] = tested on: Rattus norvegicus; test: Effect on behavioural activity in rat assessed as cocaine-induced lever response at 2.5 mg/kg, po pretreated with cocaine for 45 mins by drug-discrimination studies; type: functional
[3] = tested on: Rattus norvegicus; test: Effect on behavioural activity in rat assessed as cocaine-induced lever response at 2.5 mg/kg, po pretreated with cocaine for 90 mins by drug-discrimination studies; type: functional
[4] = tested on: Rattus norvegicus; test: Effect on behavioural activity in rat assessed as cocaine-induced lever response at 2.5 mg/kg, po pretreated with cocaine for 180 mins by drug-discrimination studies; type: functional
[5] = tested on: Rattus norvegicus; test: Effect on behavioural activity in rat assessed as cocaine-induced lever response at 2.5 mg/kg, po pretreated with cocaine for 360 mins by drug-discrimination studies; type: functional
[6] = tested on: Rattus norvegicus; test: Effect on behavioural activity in rat assessed as cocaine-induced lever response at 5 mg/kg, po pretreated with cocaine for 45 mins by drug-discrimination studies; type: functional
[7] = tested on: Rattus norvegicus; test: Effect on behavioural activity in rat assessed as cocaine-induced lever response at 5 mg/kg, po pretreated with cocaine for 90 mins by drug-discrimination studies; type: functional
[8] = tested on: Rattus norvegicus; test: Effect on behavioural activity in rat assessed as cocaine-induced lever response at 5 mg/kg, po pretreated with cocaine for 180 mins by drug-discrimination studies; type: functional
[9] = tested on: Rattus norvegicus; test: Effect on behavioural activity in rat assessed as cocaine-induced lever response at 5 mg/kg, po pretreated with cocaine for 360 mins by drug-discrimination studies; type: functional
[10] = tested on: Rattus norvegicus; test: Effect on behavioural activity in rat assessed as cocaine-induced lever response at 10 mg/kg, po pretreated with cocaine for 45 mins by drug-discrimination studies; type: functional
[11] = tested on: Rattus norvegicus; test: Effect on behavioural activity in rat assessed as cocaine-induced lever response at 10 mg/kg, po pretreated with cocaine for 90 mins by drug-discrimination studies; type: functional
[12] = tested on: Rattus norvegicus; test: Effect on behavioural activity in rat assessed as cocaine-induced lever response at 10 mg/kg, po pretreated with cocaine for 180 mins by drug-discrimination studies; type: functional
[13] = tested on: Rattus norvegicus; test: Effect on behavioural activity in rat assessed as cocaine-induced lever response at 10 mg/kg, po pretreated with cocaine for 360 mins by drug-discrimination studies; type: functional
[14] = tested on: Rattus norvegicus; test: Effect on behavioural activity in rat assessed as cocaine-induced lever response at 25 mg/kg, po pretreated with cocaine for 45 mins by drug-discrimination studies; type: functional
[15] = tested on: Rattus norvegicus; test: Effect on behavioural activity in rat assessed as cocaine-induced lever response at 25 mg/kg, po pretreated with cocaine for 90 mins by drug-discrimination studies; type: functional
[16] = tested on: Rattus norvegicus; test: Effect on behavioural activity in rat assessed as cocaine-induced lever response at 25 mg/kg, po pretreated with cocaine for 180 mins by drug-discrimination studies; type: functional
[17] = tested on: Rattus norvegicus; test: Effect on behavioural activity in rat assessed as cocaine-induced lever response at 25 mg/kg, po pretreated with cocaine for 360 mins by drug-discrimination studies; type: functional
[18] = tested on: Rattus norvegicus; test: Effect on behavioural activity in rat assessed as cocaine-induced lever response at 50 mg/kg, po pretreated with cocaine for 45 mins by drug-discrimination studies; type: functional
[19] = tested on: Rattus norvegicus; test: Effect on behavioural activity in rat assessed as cocaine-induced lever response at 50 mg/kg, po pretreated with cocaine for 90 mins by drug-discrimination studies; type: functional
[20] = tested on: Rattus norvegicus; test: Effect on behavioural activity in rat assessed as cocaine-induced lever response at 50 mg/kg, po pretreated with cocaine for 180 mins by drug-discrimination studies; type: functional
[21] = tested on: Rattus norvegicus; test: Effect on behavioural activity in rat assessed as cocaine-induced lever response at 50 mg/kg, po pretreated with cocaine for 360 mins by drug-discrimination studies; type: functional
[22] = tested on: Rattus norvegicus; test: Effect on behavioural activity in rat assessed as cocaine-induced lever response at 100 mg/kg, po pretreated with cocaine for 45 mins by drug-discrimination studies; type: functional
[23] = tested on: Rattus norvegicus; test: Effect on behavioural activity in rat assessed as cocaine-induced lever response at 100 mg/kg, po pretreated with cocaine for 90 mins by drug-discrimination studies; type: functional
[24] = tested on: Rattus norvegicus; test: Effect on behavioural activity in rat assessed as cocaine-induced lever response at 100 mg/kg, po pretreated with cocaine for 180 mins by drug-discrimination studies; type: functional
[25] = target: Sodium-dependent serotonin transporter (Homo sapiens, UniProt P31645); test: biochemical; type: cell-based, HEK293
[26] = target: Sodium-dependent noradrenaline transporter (Homo sapiens, UniProt P23975); test: Displacement of [125I]RTI55 from cloned human NET expressed in HEK293 cells; type: cell-based
[27] = tested on: Mus musculus; test: Antidepressant activity in ip dosed mouse assessed as stimulation of locomotor activity; type: functional
[28] = tested on: Mus musculus; test: Antidepressant activity in ip dosed mouse assessed as stimulation of locomotor activity relative to cocaine; type: functional
[29] = tested on: Mus musculus; test: Antidepressant activity in ip dosed mouse assessed as time to reach peak stimulation of locomotor activity; type: functional
[30] = tested on: Mus musculus; test: Antidepressant activity in ip dosed mouse assessed as duration of locomotor activity; type: functional
[31] = tested on: Rattus norvegicus; test: Effect on behavioural activity in rat assessed as cocaine-induced lever response at 100 mg/kg, po pretreated with cocaine for 360 mins by drug-discrimination studies; type: functional
[32] = tested on: Rattus norvegicus; test: Effect on behavioural activity in rat assessed as cocaine-induced lever response at 200 mg/kg, po pretreated with cocaine for 45 mins by drug-discrimination studies; type: functional
[33] = tested on: Rattus norvegicus; test: Effect on behavioural activity in rat assessed as cocaine-induced lever response at 200 mg/kg, po pretreated with cocaine for 90 mins by drug-discrimination studies; type: functional
[34] = tested on: Rattus norvegicus; test: Effect on behavioural activity in rat assessed as cocaine-induced lever response at 200 mg/kg, po pretreated with cocaine for 180 mins by drug-discrimination studies; type: functional
[35] = tested on: Rattus norvegicus; test: Effect on behavioural activity in rat assessed as cocaine-induced lever response at 200 mg/kg, po pretreated with cocaine for 360 mins by drug-discrimination studies; type: functional
[36] = tested on: Rattus norvegicus; test: Effect on behavioural activity in po dosed rat assessed as cocaine-induced lever response pretreated with cocaine by drug-discrimination studies; type: functional
[37] = tested on: Rattus norvegicus; test: Effect on behavioural activity in rat assessed as cocaine-induced lever response at 2.5 mg/kg, ip pretreated with cocaine for 30 mins by drug-discrimination studies; type: functional; settings: route intraperitoneal
[38] = tested on: Rattus norvegicus; test: Effect on behavioural activity in rat assessed as cocaine-induced lever response at 5 mg/kg, ip pretreated with cocaine for 30 mins by drug-discrimination studies; type: functional; settings: route intraperitoneal
[39] = tested on: Rattus norvegicus; test: Effect on behavioural activity in rat assessed as cocaine-induced lever response at 10 mg/kg, ip pretreated with cocaine for 30 mins by drug-discrimination studies; type: functional; settings: route intraperitoneal
[40] = tested on: Rattus norvegicus; test: Effect on behavioural activity in rat assessed as cocaine-induced lever response at 25 mg/kg, ip pretreated with cocaine for 30 mins by drug-discrimination studies; type: functional; settings: route intraperitoneal

Sodium-dependent noradrenaline transporter, sequence (P23975 whole entry): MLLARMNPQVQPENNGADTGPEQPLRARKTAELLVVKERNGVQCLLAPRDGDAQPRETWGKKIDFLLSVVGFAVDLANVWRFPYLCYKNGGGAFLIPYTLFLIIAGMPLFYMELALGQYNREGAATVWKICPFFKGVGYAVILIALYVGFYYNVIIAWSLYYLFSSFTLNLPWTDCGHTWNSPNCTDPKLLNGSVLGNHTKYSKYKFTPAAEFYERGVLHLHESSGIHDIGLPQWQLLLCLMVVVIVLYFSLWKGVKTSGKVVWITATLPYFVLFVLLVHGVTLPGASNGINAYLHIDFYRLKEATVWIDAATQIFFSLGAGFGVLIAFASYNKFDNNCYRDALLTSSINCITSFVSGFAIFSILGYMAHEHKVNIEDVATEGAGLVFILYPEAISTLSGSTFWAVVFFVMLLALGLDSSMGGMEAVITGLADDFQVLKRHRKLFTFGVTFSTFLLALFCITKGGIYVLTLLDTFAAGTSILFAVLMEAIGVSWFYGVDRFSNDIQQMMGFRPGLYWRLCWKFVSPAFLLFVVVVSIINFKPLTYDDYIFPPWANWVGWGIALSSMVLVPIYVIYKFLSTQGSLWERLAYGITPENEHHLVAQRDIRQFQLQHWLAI
Sodium-dependent serotonin transporter, sequence (P31645 whole entry): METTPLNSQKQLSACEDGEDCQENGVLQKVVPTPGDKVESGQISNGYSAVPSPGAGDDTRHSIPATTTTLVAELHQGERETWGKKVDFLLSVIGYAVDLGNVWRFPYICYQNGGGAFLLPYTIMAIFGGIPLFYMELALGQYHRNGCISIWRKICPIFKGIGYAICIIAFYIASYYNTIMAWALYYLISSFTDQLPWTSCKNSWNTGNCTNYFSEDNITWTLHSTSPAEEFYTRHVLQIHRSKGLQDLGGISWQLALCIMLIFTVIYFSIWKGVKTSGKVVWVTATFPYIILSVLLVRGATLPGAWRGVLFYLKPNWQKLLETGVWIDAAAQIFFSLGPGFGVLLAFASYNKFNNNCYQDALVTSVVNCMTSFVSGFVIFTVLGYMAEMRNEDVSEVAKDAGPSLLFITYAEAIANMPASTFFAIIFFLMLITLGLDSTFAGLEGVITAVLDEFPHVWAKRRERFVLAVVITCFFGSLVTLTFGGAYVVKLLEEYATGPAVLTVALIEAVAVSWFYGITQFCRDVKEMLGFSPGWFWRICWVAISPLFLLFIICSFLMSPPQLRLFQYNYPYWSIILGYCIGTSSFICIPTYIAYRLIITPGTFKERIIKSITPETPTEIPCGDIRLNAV

Q: What does the source list for CC(NC(C)(C)C)C(=O)c1cccc(Br)c1 (stereo not given)?
A: ED50 [1]: 39.6 mg/kg; Activity [2]: 13%; Activity [3]: 0%; Activity [4]: 0%; Activity [5]: 33%; Activity [6]: 0%; Activity [7]: 15%; Activity [8]: 0%; Activity [9]: 7%; Activity [10]: 0%; Activity [11]: 0%; Activity [12]: 0%; Activity [13]: 0%; Activity [14]: 17%; Activity [15]: 0%; Activity [16]: 0%; Activity [17]: 0%; Activity [18]: 51%; Activity [19]: 21%; Activity [20]: 0%; Activity [21]: 0%; Activity [22]: 67%; Activity [23]: 56%; Activity [24]: 34%; Ki [25]: > 10 µM; Ki [26]: > 7.14 µM; ED50 [27]: 13.5 mg/kg; Activity [28]: 57%; Time to peak locomotor stimulation [29]: 0 min; Time [30]: 90 min; Activity [31]: 14%; Activity [32]: 100%; Activity [33]: 100%; Activity [34]: 5%; Activity [35]: 34%; ED50 [36]: 52.9 mg/kg; Activity [37]: 0.3%; Activity [38]: 34.4%; Activity [39]: 21%; Activity [40]: 83.6%
